Experimental data: the CheMixHub viscosity set

Assay: xn = mol fraction of the nth substance listed

CN(C)c1ccccc1 + O=S1(=O)CCCC1
viscosity [mPa·s], 101 kPa
Conditions | x1 = 0.1056 | x1 = 0.2173 | x1 = 0.2989 | x1 = 0.4055 | x1 = 0.5001 | x1 = 0.6087 | x1 = 0.6965 | x1 = 0.798 | x1 = 0.9131
303.15 K | 7.8 | 5.97 | 4.93 | 3.86 | 3.12 | 2.47 | 2.06 | 1.68 | 1.36
308.15 K | 6.92 | 5.33 | 4.44 | 3.51 | 2.85 | 2.26 | 1.89 | 1.55 | 1.26
313.15 K | 6.18 | 4.79 | 4.01 | 3.19 | 2.61 | 2.08 | 1.74 | 1.43 | 1.17

CN(C)c1ccccc1 + O=[N+]([O-])c1ccccc1
298.15 K, 101 kPa
Conditions | viscosity [mPa·s]
x2 = 0.1239 | 1.337
x2 = 0.2063 | 1.355
x2 = 0.5628 | 1.488
x2 = 0.6512 | 1.565
x2 = 0.8325 | 1.702
x2 = 0.9168 | 1.766

CCCC[P+](CC)(CC)CC.N#Cc1ccc[n-]1 + OCC(O)CO
100 kPa
Conditions | viscosity [mPa·s]
293.15 K, x1 = 0.259 | 933
293.15 K, x1 = 0.34 | 737
298.15 K, x1 = 0.004 | 876
298.15 K, x1 = 0.018 | 953
298.15 K, x1 = 0.129 | 932
298.15 K, x1 = 0.187 | 768
303.15 K, x1 = 0.058 | 695
303.15 K, x1 = 0.08 | 692

CCCCCCCCCCCCCCCCCC[P+](CCCC)(CCCC)CCCC.N#Cc1ccc[n-]1 + OCCN(CCO)CCO
viscosity [mPa·s], 100 kPa
Conditions | 293.15 K | 298.15 K | 303.15 K | 313.15 K
x1 = 0.014 | 971 | 643 | 420 | 192
x1 = 0.029 | 1032 | 613 | 390 | 189
x1 = 0.046 | 1123 | 683 | 439 | 217
x1 = 0.085 | 1228 | 775 | 506 | 248
x1 = 0.104 | 1251 | 794 | 526 | 258
x1 = 0.214 | 1185 | 795 | 538 | 267
x1 = 0.286 | 1096 | 746 | 509 | 257
x1 = 0.387 | 1019 | 704 | 483 | 248
x1 = 0.475 | 928 | 646 | 448 | 233
x1 = 0.548 | 856 | 600 | 422 | 225
x1 = 0.73 | 847 | 614 | 459 | 242
x1 = 0.834 | 925 | 653 | 459 | 244
